Measurements taken from patent publication US7547700B2, “Aryl-[4-halo-4(heteroarylmethylamino)-methyl]-piperidin-1-1yl]-methanone derivatives, methods for production and use thereof as medicaments” (PIERRE Fabre Medicament, priority 2002, dated 2009).
Where a name gives a salt, the structure may show the parent alone. Read-outs that look alike come from different tables or passages of the source.

How the values were obtained:
[1] = molecular target: T1, 5-HT1A receptors (Homo sapiens, UniProt P08908); assay: Efficacy: stimulation of [35S]GTPγS binding in a cell membrane preparation; type: biochemical
T1 construct: Gibco Biocult; Laboratory, Paisley UK; host or cells: unspecified cells; membrane preparation
T1 sequence (P08908 1-422): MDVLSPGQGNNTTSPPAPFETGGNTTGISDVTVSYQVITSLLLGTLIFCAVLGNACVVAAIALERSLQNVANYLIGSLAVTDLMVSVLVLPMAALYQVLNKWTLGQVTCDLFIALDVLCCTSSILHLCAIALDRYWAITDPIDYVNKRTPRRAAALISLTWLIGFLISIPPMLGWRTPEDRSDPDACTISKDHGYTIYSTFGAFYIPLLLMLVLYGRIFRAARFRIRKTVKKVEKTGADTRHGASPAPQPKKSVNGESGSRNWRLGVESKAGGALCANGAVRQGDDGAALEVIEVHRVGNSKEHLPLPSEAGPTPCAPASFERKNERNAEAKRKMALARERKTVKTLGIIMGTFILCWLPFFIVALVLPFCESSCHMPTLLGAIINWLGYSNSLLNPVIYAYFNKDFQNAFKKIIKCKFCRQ
Protocol: Measurement of the Efficacy of the Compounds of the Invention
The cells (Gibco Biocult. Laboratory, Paisley UK) are collected in phosphate buffer (pH=7.4) and centrifuged at 48 000 g for 20 minutes. The centrifugation pellet is homogenized in Hepes (20 mmol, pH=7.4) containing EDTA (10 mmol) and recentrifuged at 48 000×g for 10 minutes. The centrifugation pellet is washed twice in Hepes (10 mmol, pH=7.4) containing EDTA (0.1 mmol). The pellet is stored at −80° C. in portions of 600 to 750 μg of protein. […] The incubation medium contains 0.4 ml of membrane preparation and 0.05 ml of test compound. After incubation for 30 minutes at 25° C., 0.05 ml of [^35S]GTPγS (500 picomol), ([^35S]GTPγS (1100 Ci/mmol), Amersham, Les Ulis France), is added and the mixture incubated for 30 minutes. The reactions are quenched by addition of 3 ml of ice-cold Hepes (20 mmol) containing 3 mmol of MgCl2 and rapid filtration through Whatman GF/B filters. The tubes are rinsed 3 times with 5 ml of Hepes buffer at 25° C. The radioactivity collected on the filter is analyzed by liquid scintillation by adding 4 ml of scintillant liquid (Emulsifier Safe, Packard). […] All the experiments are performed in triplicate.

[2] = molecular target: T2, dopaminergic D2 receptors (Rattus norvegicus, UniProt P61169); assay: Affinity for the D2 receptors, displacement of [3H]YM-09151-2; type: binding; conditions: rat striatum, [3H]YM-09151-2 displacement, mean of at least 3 experiments
T2 construct: For these experiments, rat striatum is used; from tissue; host or cells: rat striatum homogenate
Protocol: Measurement of the affinity of the compounds of the invention for the D2 receptors
For these experiments, rat striatum is used. After thawing the brain in Tris-HCl buffer (50 mmol, pH=7.4) at 25° C., the striatum is removed and homogenized in 40 volumes of buffer maintained at 4° C. The homogenate is centrifuged at 20 000×g for 10 minutes, and the centrifugation pellet is suspended in the same volume of buffer and recentrifuged. The final pellet is suspended in cold Tris-HCl reaction buffer at 25° C. containing 120 mmol of NaCl and 5 mmol of KCl. The final concentration of tissue in the incubation medium is 2 mg/tube. […] The nonspecific binding is defined by using […] of (+)-butaclamol. The reaction tubes are incubated at 23° C. for 60 minutes and their content is then rapidly filtered through Whatman GF/B filters, and the tubes are rinsed twice with 5 ml of Tris-HCl buffer at 25° C. The radioactivity collected on the filter is analyzed by liquid scintillation, by adding 4 ml of scintillant liquid (Emulsifier Safe, Packard). All the experiments are performed in triplicate.

[3] = molecular target: T3, 5-HT1A receptors (Rattus norvegicus, UniProt P19327); assay: Affinity for the 5-HT1A receptors, displacement of [3H]8-OH-DPAT; type: binding; conditions: for Selectivity 5-HT1A/D2: ratio of 5-HT1A to D2 affinity
T3 construct: For these experiments, rat cerebral cortices are used; from tissue; host or cells: rat cerebral cortex homogenate
T3 sequence (P19327 1-422): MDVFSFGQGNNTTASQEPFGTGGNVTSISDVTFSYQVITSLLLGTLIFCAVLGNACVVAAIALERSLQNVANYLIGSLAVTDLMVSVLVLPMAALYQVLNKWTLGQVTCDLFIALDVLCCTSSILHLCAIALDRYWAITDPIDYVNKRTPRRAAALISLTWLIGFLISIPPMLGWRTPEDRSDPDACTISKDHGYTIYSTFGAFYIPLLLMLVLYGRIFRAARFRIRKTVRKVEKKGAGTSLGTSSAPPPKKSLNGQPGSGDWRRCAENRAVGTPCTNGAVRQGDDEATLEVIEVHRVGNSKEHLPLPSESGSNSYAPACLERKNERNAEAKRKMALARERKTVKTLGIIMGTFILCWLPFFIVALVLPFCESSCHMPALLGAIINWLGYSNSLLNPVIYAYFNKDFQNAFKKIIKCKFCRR
Protocol: Measurement of the affinity of the compounds in the invention for the 5-HT1A receptors
For these experiments, rat cerebral cortices are used. After thawing the brain in Tris-HCl buffer (50 mmol, pH=7.4) at 25° C., the cerebral cortex is removed and homogenized in 20 volumes of buffer maintained at 4° C. The homogenate is centrifuged at 39 000×g for 10 minutes, and the centrifugation pellet is suspended in the same volume of buffer and recentrifuged. After resuspending under the same conditions, the homogenate is incubated for 10 minutes at 37° C. and then recentrifuged. The final pellet is suspended in cold Tris-HCl reaction buffer (50 mmol) at 25° C. containing […] of pargyline, 4 mmol of CaCl2 and 0.10% of ascorbic acid. The final concentration of tissue in the incubation medium is 10 mg/tube.
The nonspecific binding is defined by using […] of serotonin. The reaction tubes are incubated at 23° C. for 30 minutes and their content is then rapidly filtered under vacuum through Whatman GF/B filters, and the tubes are rinsed with twice 5 ml of tris-HCl buffer at 25° C. The radio-activity collected on the filter is analyzed by liquid scintillation, by adding 4 ml of scintillant liquid (Emulsifier Safe, Packard, Warrenville, USA). All the experiments are performed in triplicate.

[4] = read-out: 5-HT1A pKi (converted)
[5] = [35S]GTPγS binding, maximum stimulation defined with serotonin (10 μmmol), read-out: % stimulation Maximum effect

T2 sequence (P61169 whole entry): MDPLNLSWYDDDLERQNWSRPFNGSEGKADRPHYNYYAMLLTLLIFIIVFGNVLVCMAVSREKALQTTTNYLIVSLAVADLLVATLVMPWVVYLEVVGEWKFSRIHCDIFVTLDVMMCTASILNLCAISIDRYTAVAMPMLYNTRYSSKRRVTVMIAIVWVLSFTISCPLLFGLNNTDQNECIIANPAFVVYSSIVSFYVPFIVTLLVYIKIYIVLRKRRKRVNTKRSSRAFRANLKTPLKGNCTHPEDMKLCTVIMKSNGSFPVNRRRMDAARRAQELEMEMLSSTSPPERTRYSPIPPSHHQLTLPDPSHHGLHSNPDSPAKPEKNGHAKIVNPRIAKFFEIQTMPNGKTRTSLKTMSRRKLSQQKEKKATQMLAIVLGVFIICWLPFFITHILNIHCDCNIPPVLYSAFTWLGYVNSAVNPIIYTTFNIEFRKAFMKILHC

Compound: O=C(c1ccc(F)c(Cl)c1)N1CCC(F)(CNCc2ccc(O)cn2)CC1 (as salt: fumarate) [Compound 1-1, (3-chloro-4-fluorophenyl)(4-fluoro-4-{[(5-hydroxypyridin-2-ylmethyl)amino]methyl}-piperidin-1-yl)methanone]
- melting point: 225 to 227 °C

Compound: N#Cc1ccc(CNCC2(F)CCN(C(=O)c3ccc(F)c(Cl)c3)CC2)nc1 (as salt: fumarate) [Compound 1-2, (3-chloro-4-fluorophenyl)-(4-fluoro-4-{[(5-cyanopyridin-2-ylmethyl)amino]methyl}-piperidin-1-yl)methanone]
- melting point: 170 to 172 °C

Compound: O=C(c1ccc(F)c(Cl)c1)N1CCC(F)(CNCc2ccc(Cl)cn2)CC1 (as salt: fumarate) [Compound 1-3, (3-chloro-4-fluorophenyl)-(4-fluoro-4-{[(5-chloropyridin-2-ylmethyl)amino]methyl}piperidin-1-yl)methanone]
- melting point: 160 to 162 °C

Compound: O=C(c1ccc(F)c(Cl)c1)N1CCC(F)(CNCc2ccc(CF)cn2)CC1 (as salt: fumarate) [Compound 1-4, (3-chloro-4-fluorophenyl)-(4-fluoro-4-{[(5-fluoromethylpyridin-2-ylmethyl)amino]-methyl}piperidin-1-yl)methanone]
- melting point: 157 to 159 °C

Compound: Cc1cnc(CNCC2(F)CCN(C(=O)c3ccc(Cl)c(Cl)c3)CC2)nc1 (as salt: fumarate) [Compound 1-6, (3,4-dichlorophenyl)-(4-fluoro-4-{[(5-methylpyrimidin-2-ylmethyl)amino]-methyl}piperidin-1-yl)methanone]
- melting point: 161 °C

Compound: Cc1ccc(CNCC2(F)CCN(C(=O)c3ccc(F)c(F)c3)CC2)nc1 (as salt: fumarate) [Compound 1-11, (3,4-difluorophenyl)-(4-fluoro-4-{[(5-methylpyridin-2-ylmethyl)amino]methyl}piperidin-1-yl)methanone]
- melting point: 158 °C

Compound: Cc1ccc(CNCC2(F)CCN(C(=O)c3ccc(Cl)c(F)c3)CC2)nc1 (as salt: fumarate) [Compound 1-12, (3-fluoro-4-chlorophenyl)-(4-fluoro-4-{[(5-methylpyridin-2-ylmethyl)amino]methyl}piperidin-1-yl)methanone]
- melting point: 150 °C

Compound: Cc1ccc(CNCC2(F)CCN(C(=O)c3ccc(F)c(C#N)c3)CC2)nc1 (as salt: fumarate) [Compound 1-13, (3-cyano-4-fluorophenyl)-(4-fluoro-4-{[(5-methylpyridin-2-ylmethyl)amino]methyl}piperidin-1-yl)methanone]
- melting point: 175 °C

Compound: Cc1ccc(CNCC2(F)CCN(C(=O)c3ccc(F)c(Cl)c3)CC2)nn1 (as salt: hydrochloride) [Compound 1-7, (3-chloro-4-fluorophenyl)-(4-fluoro-4-{[(6-methylpyridazin-3-ylmethyl)amino]-methyl}piperidin-1-yl)methanone]
- melting point: 205 °C (dec.)

Compound: Cc1ccc(CNCC2(Cl)CCN(C(=O)c3ccc(F)c(Cl)c3)CC2)nc1 (as salt: hydrochloride) [Compound 1-9, (3-chloro-4-fluorophenyl)-(4-chloro-4-{[(5-methylpyridin-2-ylmethyl)amino]-methyl}piperidin-1-yl)methanone]
- melting point: 190 °C (dec.)

Compound: Cc1ccc(CNCC2(F)CCN(C(=O)c3cccc(C(F)(F)F)c3)CC2)nc1 (as salt: hydrochloride) [Compound 1-14, (3-trifluoromethylphenyl)-(4-fluoro-4-{[(5-methylpyridin-2-ylmethyl)amino]methyl}piperidin-1-yl)methanone]
- melting point: 172 °C

Compound: Cc1ccc(CNCC2(F)CCN(C(=O)c3ccc(Cl)c(Cl)c3)CC2)nn1 (as salt: oxalate) [Compound 1-8, (3,4-dichlorophenyl)-(4-fluoro-4-{[(6-methylpyridazin-3-ylmethyl)amino]-methyl}piperidin-1-yl)methanone]
- melting point: 203 °C (dec.)

Compound: CCCN(CCC)C1CCc2cccc(O)c2C1 (single isomer, unassigned; (+)) [(+)-8-OH-DPAT, reference compound]
- % stimulation Maximum effect ([1]; [35S]GTPγS binding, maximum stimulation defined with serotonin (10 μmmol)): 59%
- Ki ([2]; D2 pKi): 794 nM

Compound: Cc1ccc(CNCC2(F)CCN(C(=O)c3ccc(F)c(Cl)c3)CC2)nn1 [Compound 1-7, (3-chloro-4-fluorophenyl)-(4-fluoro-4-{[(6-methylpyridazin-3-ylmethyl)amino]-methyl}piperidin-1-yl)methanone]
- Selectivity 5-HT1A/D2 [3]: >1000
- Ki [3, 4]: 5.01 nM
- Emax [1, 5]: 90%
- Ki ([2]; read-out: D2 pKi (converted)): > 10000 nM

Compound: Cc1ccc(CNCC2(Cl)CCN(C(=O)c3ccc(F)c(Cl)c3)CC2)nc1 [Compound 1-9, (3-chloro-4-fluorophenyl)-(4-chloro-4-{[(5-methylpyridin-2-ylmethyl)amino]-methyl}piperidin-1-yl)methanone]
- Selectivity 5-HT1A/D2 [3]: >1000
- Ki [3, 4]: 0.794 nM
- Emax [1, 5]: 100%
- Ki ([2]; read-out: D2 pKi (converted)): > 10000 nM

Compound: CCCN(CCC)C1CCc2cccc(O)c2C1 (stereo not drawn) [Compound 8-OH-DPAT, 8-hydroxy-2-di-n-propylaminotetralin, reference compound]
- Emax ([1]; read-out: % stimulation Maximum effect, [35S]GTPγS binding, maximum stimulation defined with serotonin (10 μmmol)): 41%
- Ki ([2]; D2 pKi): 631 nM

Compound: Cc1ccc(CNCC2(F)CCN(C(=O)c3ccc(F)c(Cl)c3)CC2)nc1 [Compound I-66, (3-chloro-4-fluorophenyl)(4-fluoro-4-{[(5-methylpyridin-2-ylmethyl)-amino]methyl}piperidin-1-yl)methanone, reference compound]
- Ki [3]: 0.794 nM
- Emax [1, 5]: 75%

Compound: O=C1CC2(CCCC2)CC(=O)N1CCCCN1CCN(c2ncccn2)CC1 [buspirone]
- Emax [1, 5]: 22%
